Measurements reported in patent publication US20210087565A1, “ANTISENSE ANTIBIOTICS AND BACTERIAL SECRETION BASED DELIVERY SYSTEM TO ELIMINATE DRUG-RESISTANT BACTERIA” (priority 2018, published 2021).

What was measured:
[1] = system: NDM-1 KPN; test: PNA growth assay (optical density) on clinical isolate; assay type: cell-based, Klebsiella pneumoniae
Description: Bacterial Cell culture: The clinical isolates were obtained from the lab of Nancy Madinger at the University of Colorado Anschutz campus. Clinical isolates were grown in Cation Adjusted Mueller Hinton broth (CAMHB) (Becton, Dickinson and Company 212322) at 37° C. with 225 rpm shaking or on solid CAMHB with 1.5% agar at 37° C. Clinical isolates were maintained as freezer stocks in 90% CAMHB, 10% glycerol at −80° C. Freezer stocks were streaked out onto solid CAMHB and incubated for 16 h to produce single colonies prior to experiments. For each biological replicate, a single colony was picked from solid media and grown for 16 h in liquid CAMHB prior to experiments. Non-clinical isolates, such as E. coli MG1655 (ATCC700926) and Salmonella entorica serovar typhimurium SL1344, were cultured in liquid 2% lysogeny broth (LB) or on 2% LB with 1.5% agar for solid plates. S. typhimurium cultures were supplemented with 30 μg/mL streptomycin and SL1344 strains containing plasmids pFPV (SL1344-mCherry) or pRG1 modified with a lacIq promoter (SL1344-Holin) were supplemented with 100 μg/mL ampicillin. Freezer stocks were stored in 60% LB broth, 40% glycerol at −80° C. Freezer stocks were streaked out onto solid LB and incubated for 16 h to produce single colonies before experiments. For biological replicates, single colonies were started in liquid LB and grown for 16 hours prior to experiments. E. coli MG1655 PNA growth experiments were carried out in M9 media (1×M9 minimal media salts solution (MP Biomedicals), 2.0 mM MgSO4, and 0.1 mM CaCl2 in sterile water) with 0.4% glucose.
PNA growth assay: Biological replicates were diluted 1:10,000 into treatment condition in 384-well plates and measured for 24 h in a Tecan GENios at 562 nm with a bandwidth of 35 nm. Media absorbance blanks were subtracted from data prior to analysis. Normalized optical density (OD) data is shown normalized to the time point where the “no treatment” growth curves reached saturation phase which varied across biological replicates.

[2] = system: SL1344 infection of MC3T3-E1 osteoblast precursor cells; test: Salmonella infection of osteoblast precursor cells, T3SS-PNA treatment; assay type: cell-based, Salmonella enterica serovar typhimurium; details: 10 μM, multiplicity of infection of 30, 18 hours
Description: FIG. 11. […] Osteoblast precursor cells were grown for 24 hours on tissue culture treated 96-well plates prior to infection with SL1344 at a multiplicity of infection of 30. (A) The antisense inhibitor α-rpsD was added at 10 μM either without infection (No Treatment), after infection (Naked), or during infection (T3SS Transport). (B) After treatment for 18 hours the infection was imaged in brightfield and GFP channel. GFP expression corresponds to an intracellular infection with red arrows indicating hard to see GFP expression.
Osteoblast Precursor Cell Culture: MC3T3-E1 osteoblast precursor cells were stored in liquid nitrogen in growth media supplemented with %10 dimethyl sulfoxide (DMSO, Sigma). Osteoblasts were recovered from freezer stocks and cultured in growth media consisting of α-Minimum Essential Media (α-MEM, Gibco) supplemented with 10% Fetal Bovine Serum (FBS, Advanced, Atlanta Biologics), and 50 units/mL Penicillin-Streptomycin (P/S, Fisher Scientific) at 37° C., 5% CO2, and controlled humidity. For biological replicates a freezer stock, at passage 9, was split three ways and each replicate continuously passaged as individual biological replicates at 80% confluency using 0.25% trypsin (HyClone). […]

## α-rpsD: 12-mer antisense PNA AGAAAATGGCAA (SEQ ID NO. 19) targeting rpsD, conjugated to (KFF)3K cell penetrating peptide via AEEA-linker (all peptide nucleic acid (PNA); (KFF)3K cell-penetrating peptide attached via AEEA linker)
[1]; 10 μM
  monotherapy effect (in words): partial monotherapy effect
[1]; 10 μM PNA, optical density vs no treatment at 16 hours
  growth inhibition: 65±7.1%
[2]
  Salmonella infection of osteoblast cells (in words): eliminates Salmonella infection
